From US10538535B2, “Antitumoral compounds” (priority 2017, dated 2020)
Read-outs that look alike come from different tables or passages of the source.

What was measured:
Test in all cases: cells
Details in all cases: for CC50: read-out: LC50; for IC (TGI): read-out: TGI
[1] = system: HT29 cells
Description: (§1) The aim of this assay is to evaluate the in vitro cytostatic (ability to delay or arrest tumor cell growth) or cytotoxic (ability to kill tumor cells) activity of the samples being tested.
(§2) A colorimetric assay, using sulforhodamine B (SRB) reaction has been adapted to provide a quantitative measurement of cell growth and viability (following the technique described by Skehan et al. J. Natl. Cancer Inst. 1990, 82, 1107-1112). Another colorimetric assay based on 3-(4,5-Dimethylthiazol-2-yl)-2,5-diphenyltetrazolium bromide (MTT) reduction to a purple formazan has been also used to assess the antiproliferative activity (following the technique described by Mosmann et al. J. Immunol. Meth. 1983, 65, 55-63).
(§3) These forms of assays employ 96-well cell culture microplates following the standards of the American National Standards Institute and the Society for Laboratory Automation and Screening (ANSI SLAS 1-2004 (R2012) Oct. 12, 2011. All the cell lines used in this study were obtained from the American Type Culture Collection (ATCC) and derive from different types of human cancer.
(§4) A549, HT29, MDA-MB-231 and PSN1 cells were maintained in Dulbecco's Modified Eagle Medium (DMEM) while PC-3 and 22Rv1 cells were maintained in Roswell Park Memorial Institute Medium (RPMI). All cell lines were supplemented with 10% Fetal Bovine Serum (FBS), 2 mM L-glutamine, 100 U/mL penicillin, and 100 […] at 37° C., 5% CO2 and 98% humidity. For the experiments, cells were harvested from subconfluent cultures using trypsinization and resuspended in fresh medium before counting and plating.
(§5) A549, HT29, MDA-MB-231 and PSN1 cells were seeded in 96 well microtiter plates, at 5000 cells per well in aliquots of 150 μL, and allowed to attach to the plate surface for 18 hours (overnight) in drug free medium. After that, one control (untreated) plate of each cell line was fixed (as described below) and used for time zero reference value. Culture plates were then treated with test compounds (50 μL aliquots of 4× stock solutions in complete culture medium plus 4% DMSO) using ten 2/5 serial dilutions (concentrations ranging from 10 to 0.003 μg/mL) and triplicate cultures (1% final concentration in DMSO). After 72 hours treatment, the antitumor effect was measured by using the SRB methodology: Briefly, cells were washed twice with PBS, fixed for 15 min in 1% glutaraldehyde solution at room temperature, rinsed twice in PBS, and stained in 0.4% SRB solution for 30 min at room temperature. Cells were then rinsed several times with 1% acetic acid solution and air-dried at room temperature.
(§6) Effects on cell growth and survival were estimated by applying the NCI algorithm (Boyd M R and Paull K D. Drug Dev. Res. 1995, 34, 91-104). The values obtained in triplicate cultures were fitted by nonlinear regression to a four-parameters logistic curve by nonlinear regression analysis.

[2] = system: MDA-MB-231 cells
Description: as §1, §2, §3, §4, §5, §6

[3] = system: PSN1 cells
Description: as §1, §2, §3, §4, §5, §6

[4] = system: A549 cells
Description: as §1, §2, §3, §4, §5, §6

[5] = MDA-MB-231, 72 hours treatment, SRB
[6] = Homo sapiens, PSN1, 72 h, PSN1, 72 hours treatment, SRB

| Compound | GI50 ([1]; Homo sapiens, HT-29, 72 h) [nM] | CC50 ([1]; Homo sapiens, HT-29, 72 h) [nM] | IC (TGI) ([1]; Homo sapiens, HT-29, 72 h) [nM] | GI50 ([2]; Homo sapiens, MDA-MB-231, 72 h) [nM] | CC50 ([2]; Homo sapiens, MDA-MB-231, 72 h) [nM] | IC (TGI) ([2]; Homo sapiens, MDA-MB-231, 72 h) [nM] | GI50 ([3]; Homo sapiens, PSN1, 72 h) [nM] | CC50 ([3]; Homo sapiens, PSN1, 72 h) [nM] | IC (TGI) ([3]; Homo sapiens, PSN1, 72 h) [nM] | GI50 ([4]; Homo sapiens, A549, 72 h) [nM] | CC50 ([4]; Homo sapiens, A549, 72 h) [nM] | IC (TGI) ([4]; Homo sapiens, A549, 72 h) [nM] | GI50 [3, 6] [nM] | also measured |
| --- | --- | --- | --- | --- | --- | --- | --- | --- | --- | --- | --- | --- | --- | --- |
| COc1ccc2[nH]c3c(c2c1)CCNC31CSC2c3c(OC(C)=O)c(C)c4c(c3C(COC1=O)N1C(C#N)C3Cc5cc(C)c(OC)c(O)c5C(C21)N3C)OCO4 (stereo not drawn) [E] | – | – | – | – | – | – | – | – | – | – | – | – | – | GI50 ([1]; HT29, 72 hours treatment, SRB): 3.15 nM; TGI ([1]; HT29, 72 hours treatment, SRB): 3.40E−09 Molar; CC50 ([1]; HT29, 72 hours treatment, SRB): > 126 nM; GI50 [2, 5]: 2.27 nM; TGI [2, 5]: 3.78E−09 Molar; CC50 [2, 5]: 7.43 nM; GI50 ([3]; PSN1, 72 hours treatment, SRB): 2.77 nM; TGI ([3]; PSN1, 72 hours treatment, SRB): 4.53E−09 Molar; CC50 ([3]; PSN1, 72 hours treatment, SRB): 8.94 nM; GI50 ([4]; A549, 72 hours treatment, SRB): 3.28 nM; TGI ([4]; A549, 72 hours treatment, SRB): 3.40E−09 Molar; CC50 ([4]; A549, 72 hours treatment, SRB): 4.41 nM |
| COc1c(C)cc2c(c1O)[C@@H]1[C@@H]3[C@@H]4SC[C@]5(N[C@H](C(=O)O)Cc6c5[nH]c5ccccc65)C(=O)OC[C@@H](c5c6c(c(C)c(OC(C)=O)c54)OCO6)N3[C@@H](O)[C@H](C2)N1C [Compound 15-S] | 300 | 914 | 513 | 163 | 275 | 213 | 238 | 839 | 463 | > 1250 | > 1250 | > 1250 | – | – |
| COc1ccc2[nH]c3c(c2c1)C[C@@H](C(=O)O)N[C@]31CS[C@@H]2c3c(OC(C)=O)c(C)c4c(c3[C@H](COC1=O)N1[C@@H]2[C@H]2c3c(cc(C)c(OC)c3O)C[C@@H]([C@@H]1O)N2C)OCO4 [Compound 29-S] | 362 | 832 | 531 | 217 | 688 | 374 | 386 | 688 | 507 | 615 | > 1210 | > 1210 | – | – |
| COc1ccc2[nH]c3c(c2c1)C[C@H](CO)N[C@]31CS[C@@H]2c3c(OC(C)=O)c(C)c4c(c3[C@H](COC1=O)N1[C@@H]2[C@H]2c3c(cc(C)c(OC)c3O)C[C@@H]([C@@H]1C#N)N2C)OCO4 [Compound 18-R] | – | – | 1.34 | – | 1.46 | 1.34 | – | – | 1.06 | – | – | 1.34 | 0.57 | GI50 ([3]; PSN1, 72 hours treatment, SRB): 0.571 nM |
| COc1ccc2[nH]c3c(c2c1)C[C@H](C(=O)O)N[C@]31CS[C@@H]2c3c(OC(C)=O)c(C)c4c(c3[C@H](COC1=O)N1[C@@H]2[C@H]2c3c(cc(C)c(OC)c3O)C[C@@H]([C@@H]1C#N)N2C)OCO4 [Compound 28-R] | 31 | > 1190 | 33.4 | 19.1 | 91.9 | 32.2 | 21.5 | 66.8 | 35.8 | 167 | > 1190 | 358 | – | – |
| C=CCOC(=O)NC[C@@H]1Cc2c([nH]c3ccc(OC)cc23)[C@@]2(CS[C@@H]3c4c(OC(C)=O)c(C)c5c(c4[C@H](COC2=O)N2[C@@H]3[C@H]3c4c(cc(C)c(OC)c4O)C[C@@H]([C@@H]2C#N)N3C)OCO5)N1 [Compound 25-S] | 7.17 | > 110 | 7.72 | 5.84 | 15.4 | 9.04 | – | 14.3 | 9.26 | 7.17 | > 110 | 7.61 | 6.84 | – |
| COc1ccc2[nH]c3c(c2c1)C[C@@H](CN)N[C@]31CS[C@@H]2c3c(OC(C)=O)c(C)c4c(c3[C@H](COC1=O)N1[C@@H]2[C@H]2c3c(cc(C)c(OC)c3O)C[C@@H]([C@@H]1O)N2C)OCO4 [Compound 27-S] | – | > 123 | 1.35 | 1.19 | 1.35 | – | – | 4.55 | 2.83 | 6.02 | > 123 | 11.2 | 1.97 | – |
| COc1ccc2oc3c(c2c1)CCN[C@]31CS[C@@H]2c3c(OC(C)=O)c(C)c4c(c3[C@H](COC1=O)N1[C@@H]2[C@H]2c3c(cc(C)c(OC)c3O)C[C@@H]([C@@H]1C#N)N2C)OCO4 [Compound 34] | 54.1 | 125 | 85.5 | 45.3 | 112 | 76.7 | 54.1 | > 126 | 59.1 | 59.1 | > 126 | 80.5 | – | – |
| COc1ccc2[nH]c3c(c2c1)C[C@@H](C(=O)O)N[C@]31CS[C@@H]2c3c(OC(C)=O)c(C)c4c(c3[C@H](COC1=O)N1[C@@H]2[C@H]2c3c(cc(C)c(OC)c3O)C[C@@H]([C@@H]1C#N)N2C)OCO4 [Compound 28-S] | 251 | 633 | 346 | 167 | 394 | 251 | 251 | 692 | 394 | 489 | > 1190 | > 1190 | – | – |
| COc1c(C)cc2c(c1O)[C@@H]1[C@@H]3[C@@H]4SC[C@]5(N[C@H](CO)Cc6c5oc5ccccc65)C(=O)OC[C@@H](c5c6c(c(C)c(OC(C)=O)c54)OCO6)N3[C@@H](C#N)[C@H](C2)N1C [Compound 38-S] | 4.53 | > 126 | 7.05 | 2.52 | 7.8 | 4.28 | – | 15.1 | 8.18 | 8.05 | 9.44 | 8.55 | 5.03 | – |
| C=CCOC(=O)NC[C@H]1Cc2c([nH]c3ccc(OC)cc23)[C@@]2(CS[C@@H]3c4c(OC(C)=O)c(C)c5c(c4[C@H](COC2=O)N2[C@@H]3[C@H]3c4c(cc(C)c(OC)c4O)C[C@@H]([C@@H]2C#N)N3C)OCO5)N1 [Compound 25-R] | 1.54 | > 110 | 2.76 | – | 8.38 | 2.54 | – | 6.73 | 2.32 | 1.32 | 9.92 | 2.43 | – | – |
| COc1ccc2[nH]c3c(c2c1)C[C@H](CN)N[C@]31CS[C@@H]2c3c(OC(C)=O)c(C)c4c(c3[C@H](COC1=O)N1[C@@H]2[C@H]2c3c(cc(C)c(OC)c3O)C[C@@H]([C@@H]1O)N2C)OCO4 [Compound 27-R] | 0.504 | > 123 | 0.553 | 0.307 | 0.86 | 0.541 | – | 2.46 | 1.17 | 2.09 | 10.1 | 3.93 | 0.639 | – |
| COc1c(C)cc2c(c1O)[C@@H]1[C@@H]3[C@@H]4SC[C@]5(N[C@@H](CO)Cc6c5oc5ccccc65)C(=O)OC[C@@H](c5c6c(c(C)c(OC(C)=O)c54)OCO6)N3[C@@H](C#N)[C@H](C2)N1C [Compound 38-R] | 0.541 | > 126 | 0.591 | 0.453 | 2.01 | 0.843 | – | 1.76 | 0.994 | 0.654 | > 126 | 1.04 | 0.654 | – |
| COc1c(C)cc2c(c1O)[C@@H]1[C@@H]3[C@@H]4SC[C@]5(NCCc6c5oc5ccccc65)C(=O)OC[C@@H](c5c6c(c(C)c(OC(C)=O)c54)OCO6)N3[C@@H](C#N)[C@H](C2)N1C [Compound 31] | 10.5 | > 131 | 15.7 | 8.89 | 35.3 | 17 | 6.8 | 43.1 | 15.7 | 19.6 | 23.5 | 20.9 | – | – |
